Assay results: patent US7655690B2, “1-sulfonylindole derivatives, their preparation and their use as 5-HT6 ligands” (Laboratorios del Dr. Esteve S.A., priority 2004, dated 2010)
Where a name gives a salt, the structure may show the parent alone.

Compared with CN1CC=C(c2cn(S(=O)(=O)C3CCCCC3)c3ccc(N)cc23)CC1 [Example 3, 5-Amino-1-cyclohexanesulfonyl-3-(1-methyl-1,2,3,6-tetrahydropyridine-4-yl)-1H-indole], CN1CC=C(c2cn(S(=O)(=O)C3CCCCC3)c3ccc(Cl)cc23)CC1 [Example 2, 5-Chloro-1-cyclohexanesulfonyl-3-(1-methyl-1,2,3,6-tetrahydropyridine-4-yl)-1H-indole] is higher in melting point: 75 °C for the first, 88 to 90 °C for the second.

First: O=S(=O)(C1CCCCC1)n1cc(C2=CCN3CCCC3C2)c2cc(F)ccc21 (stereo not shown) (as salt: hydrochloride) [Example 4, 1-Cyclohexanesulfonyl-5-fluoro-3-(1,2,3,5,8,8a-hexahydro-indolizine-7-yl)-1H-indole hydrochloride]
Second: CN1CC=C(c2cn(S(=O)(=O)C3CCCCC3)c3ccc([N+](=O)[O-])cc23)CC1 [Example 1, 1-Cyclohexanesulfonyl-3-(1-methyl-1,2,3,6-tetrahydropyridine-4-yl)-5-nitro-1H-indole]
The melting point of the first is higher: 263 °C for the first, 155 to 160 °C for the second.
